Measurements from patent publication US12064471B2, “Compositions comprising sulforaphane or a sulforaphane precursor and a mushroom extract or powder” (NUTRAMAX LABORATORIES, INC., priority 2012, dated 2024).

What was measured:
myrosinase [1] = assay: Conversion of glucoraphanin to sulforaphane by myrosinase, HPLC (Example 4); assay type: biochemical; conditions: Part 2, 250 mg broccoli seed extract
Procedure: A two-part experiment was conducted to further elucidate the role of ascorbic acid in modulating myrosinase activity. […] A control sample contained no ascorbic acid, and the enzymatic conversion proceeded unassisted by a co-factor. PART 1. […] PART 2. While keeping the amount of broccoli seed extract fixed at 250 mg, the concentration of ascorbic acid was varied from 0.4 mmol/Liter to 3.8 mmol/Liter.

myrosinase [2] = assay: Conversion of glucoraphanin to sulforaphane in Simulated Intestinal Fluid (Example 5); assay type: biochemical, broccoli; conditions: 0.25 to 1.00 mmol/Liter ascorbic acid, 38° C., 2 hours
Procedure: Simulated Intestinal Fluid (SIF) powder, a commercially supplied concentrate closely approximating the human intestinal content in terms of composition, pH and ionic strength, was used. The experiment utilized a USP Dissolution Apparatus 2 (paddles), where into six dissolution vessels 500 mL of Simulated Intestinal Fluid was dispensed, along with 150 mg of freeze-dried broccoli sprout powder as a source of myrosinase. […] Aliquots were withdrawn every 15 minutes and assayed for sulforaphane.

Ascorbic acid concentration up to which myrosinase-promoted conversion increases apparently linearly, followed by leveling off (myrosinase [1]): about 2 mmol/L
Compound: O=C1O[C@H]([C@@H](O)CO)C(O)=C1O [Ascorbic Acid, Ascorbic acid]
Sulforaphane yield versus ascorbic acid concentration (myrosinase [2]): direct correlation between larger yield of sulforaphane and higher concentrations of ascorbic acid
